In paper PMC10004634 (PLOS ONE, 2023) one finds remaining binding data, which are given here for four molecules.

SMILES strings stand for the structures. Read-outs that look alike come from different tables or passages of the source.

Targets include PAK6 (Homo sapiens, UniProt Q9NQU5); TIE1 (Homo sapiens, UniProt P35590); STK35 (Homo sapiens, UniProt Q8TDR2); STK33 (Homo sapiens, UniProt Q9BYT3).
Assay in all cases: biochemical
Set-up in all cases: KINOMEscan scanMAX competition binding, DNA-tagged kinases, qPCR read-out, percent control at 300 nM
For orientation: Quantitative PCR measures a nucleic acid by following its amplification.

The target in the next assay is T1, PFTAIRE2 (Homo sapiens, UniProt Q96Q40).
T1 construct: gene CDK15

Another assay concerns the target T2, NEK2 (Homo sapiens, UniProt P51955).
T2 sequence (P51955 1-445): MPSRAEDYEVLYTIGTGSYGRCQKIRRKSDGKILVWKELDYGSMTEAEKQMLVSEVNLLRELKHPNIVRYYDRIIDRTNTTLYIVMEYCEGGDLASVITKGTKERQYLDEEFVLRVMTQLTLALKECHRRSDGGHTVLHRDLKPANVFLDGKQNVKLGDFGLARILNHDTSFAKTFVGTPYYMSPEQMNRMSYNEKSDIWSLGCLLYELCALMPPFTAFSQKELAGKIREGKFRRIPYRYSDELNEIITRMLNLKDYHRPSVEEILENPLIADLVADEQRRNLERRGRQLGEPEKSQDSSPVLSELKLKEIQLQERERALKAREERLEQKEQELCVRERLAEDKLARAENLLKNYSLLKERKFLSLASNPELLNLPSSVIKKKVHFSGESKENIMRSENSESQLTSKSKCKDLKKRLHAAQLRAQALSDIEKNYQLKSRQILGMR

The target of a further assay is T3, AXL (Homo sapiens, UniProt P30530).
T3 sequence (P30530 1-894): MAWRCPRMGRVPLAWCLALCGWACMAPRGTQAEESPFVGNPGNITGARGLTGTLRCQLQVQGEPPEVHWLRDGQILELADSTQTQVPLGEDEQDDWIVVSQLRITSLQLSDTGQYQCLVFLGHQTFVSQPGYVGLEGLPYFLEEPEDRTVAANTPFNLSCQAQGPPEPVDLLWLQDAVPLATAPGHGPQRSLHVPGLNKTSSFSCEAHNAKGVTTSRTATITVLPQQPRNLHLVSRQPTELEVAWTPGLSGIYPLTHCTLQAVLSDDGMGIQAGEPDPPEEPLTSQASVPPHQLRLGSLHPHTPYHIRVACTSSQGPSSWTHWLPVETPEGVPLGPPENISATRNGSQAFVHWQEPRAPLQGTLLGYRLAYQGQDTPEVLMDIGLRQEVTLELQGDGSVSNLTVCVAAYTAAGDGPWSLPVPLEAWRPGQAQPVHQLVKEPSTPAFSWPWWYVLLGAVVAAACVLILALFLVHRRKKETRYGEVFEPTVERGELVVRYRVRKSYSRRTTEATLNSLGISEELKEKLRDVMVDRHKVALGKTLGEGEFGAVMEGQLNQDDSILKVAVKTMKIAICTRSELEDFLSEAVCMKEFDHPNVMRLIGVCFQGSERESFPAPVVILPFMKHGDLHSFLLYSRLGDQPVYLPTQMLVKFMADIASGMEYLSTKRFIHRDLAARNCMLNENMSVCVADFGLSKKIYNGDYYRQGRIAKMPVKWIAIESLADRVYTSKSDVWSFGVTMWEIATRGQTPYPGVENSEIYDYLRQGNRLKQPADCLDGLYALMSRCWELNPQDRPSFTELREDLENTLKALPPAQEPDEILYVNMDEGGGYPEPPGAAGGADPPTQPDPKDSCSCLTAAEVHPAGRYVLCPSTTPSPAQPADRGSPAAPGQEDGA

Setting [1] is: read-out: Percent control / Tirabrutinib.
The mark [2] stands for this setting: read-out: Percent control / Acalabrutinib.
The mark [3] stands for this setting: read-out: Percent control / Ibrutinib.
Setting [4] is: read-out: Percent control / Zanubrutinib.

T1 sequence (Q96Q40 whole entry): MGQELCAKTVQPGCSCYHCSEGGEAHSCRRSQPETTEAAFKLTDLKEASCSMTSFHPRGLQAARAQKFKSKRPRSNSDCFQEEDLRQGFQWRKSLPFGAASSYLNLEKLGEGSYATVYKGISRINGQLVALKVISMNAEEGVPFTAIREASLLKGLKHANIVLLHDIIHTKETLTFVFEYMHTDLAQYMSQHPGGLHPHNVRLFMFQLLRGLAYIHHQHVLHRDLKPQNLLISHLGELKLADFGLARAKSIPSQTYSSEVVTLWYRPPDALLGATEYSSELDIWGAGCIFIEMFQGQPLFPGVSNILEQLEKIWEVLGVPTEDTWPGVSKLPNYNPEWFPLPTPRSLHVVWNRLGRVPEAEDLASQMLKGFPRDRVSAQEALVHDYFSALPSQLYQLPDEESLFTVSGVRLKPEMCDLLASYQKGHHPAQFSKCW
Sequence of TIE1 (P35590 whole entry): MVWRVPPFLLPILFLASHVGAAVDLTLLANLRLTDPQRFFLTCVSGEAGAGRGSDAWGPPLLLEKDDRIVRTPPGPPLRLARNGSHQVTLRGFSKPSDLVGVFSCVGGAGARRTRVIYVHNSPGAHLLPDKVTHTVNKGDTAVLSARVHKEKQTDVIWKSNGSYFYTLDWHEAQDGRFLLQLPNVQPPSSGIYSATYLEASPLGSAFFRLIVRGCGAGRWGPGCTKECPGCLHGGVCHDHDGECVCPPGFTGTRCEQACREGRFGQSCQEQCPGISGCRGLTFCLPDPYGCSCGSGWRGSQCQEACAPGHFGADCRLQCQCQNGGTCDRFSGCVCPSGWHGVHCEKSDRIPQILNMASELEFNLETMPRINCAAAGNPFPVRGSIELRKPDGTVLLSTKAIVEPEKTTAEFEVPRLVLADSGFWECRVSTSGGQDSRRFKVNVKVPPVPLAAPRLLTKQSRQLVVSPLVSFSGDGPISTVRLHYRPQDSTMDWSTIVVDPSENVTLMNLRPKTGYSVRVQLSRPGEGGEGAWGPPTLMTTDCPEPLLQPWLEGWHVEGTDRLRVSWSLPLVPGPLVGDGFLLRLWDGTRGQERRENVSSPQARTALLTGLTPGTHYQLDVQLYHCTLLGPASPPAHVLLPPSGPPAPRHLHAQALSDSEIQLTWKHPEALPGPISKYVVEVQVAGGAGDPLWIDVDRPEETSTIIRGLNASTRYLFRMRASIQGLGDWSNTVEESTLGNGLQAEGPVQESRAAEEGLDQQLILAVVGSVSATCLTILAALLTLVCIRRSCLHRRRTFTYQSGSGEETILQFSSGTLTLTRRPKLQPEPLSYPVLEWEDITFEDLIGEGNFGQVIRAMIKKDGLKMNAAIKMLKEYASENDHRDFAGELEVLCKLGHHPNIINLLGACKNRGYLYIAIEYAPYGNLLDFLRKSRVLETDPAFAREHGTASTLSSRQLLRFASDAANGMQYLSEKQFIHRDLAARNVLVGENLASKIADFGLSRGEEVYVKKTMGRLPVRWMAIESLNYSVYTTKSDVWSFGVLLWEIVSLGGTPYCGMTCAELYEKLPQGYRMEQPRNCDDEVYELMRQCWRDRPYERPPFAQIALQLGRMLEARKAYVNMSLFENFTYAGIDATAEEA
Sequence of STK35 (Q8TDR2 whole entry): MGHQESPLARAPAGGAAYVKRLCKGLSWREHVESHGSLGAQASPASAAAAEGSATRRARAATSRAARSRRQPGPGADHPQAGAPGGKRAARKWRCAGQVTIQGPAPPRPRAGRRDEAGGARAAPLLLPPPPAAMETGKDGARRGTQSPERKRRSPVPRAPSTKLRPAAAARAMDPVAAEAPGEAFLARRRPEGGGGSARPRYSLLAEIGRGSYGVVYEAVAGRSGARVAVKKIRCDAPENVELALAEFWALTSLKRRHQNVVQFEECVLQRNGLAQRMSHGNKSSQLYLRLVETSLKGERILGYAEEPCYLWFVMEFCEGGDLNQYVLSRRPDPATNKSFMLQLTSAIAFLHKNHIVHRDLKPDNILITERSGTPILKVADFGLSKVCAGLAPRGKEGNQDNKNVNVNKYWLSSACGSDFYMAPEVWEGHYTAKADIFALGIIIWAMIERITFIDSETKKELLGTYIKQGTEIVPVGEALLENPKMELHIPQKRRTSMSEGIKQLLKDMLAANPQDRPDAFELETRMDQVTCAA
Sequence of PAK6 (Q9NQU5 whole entry): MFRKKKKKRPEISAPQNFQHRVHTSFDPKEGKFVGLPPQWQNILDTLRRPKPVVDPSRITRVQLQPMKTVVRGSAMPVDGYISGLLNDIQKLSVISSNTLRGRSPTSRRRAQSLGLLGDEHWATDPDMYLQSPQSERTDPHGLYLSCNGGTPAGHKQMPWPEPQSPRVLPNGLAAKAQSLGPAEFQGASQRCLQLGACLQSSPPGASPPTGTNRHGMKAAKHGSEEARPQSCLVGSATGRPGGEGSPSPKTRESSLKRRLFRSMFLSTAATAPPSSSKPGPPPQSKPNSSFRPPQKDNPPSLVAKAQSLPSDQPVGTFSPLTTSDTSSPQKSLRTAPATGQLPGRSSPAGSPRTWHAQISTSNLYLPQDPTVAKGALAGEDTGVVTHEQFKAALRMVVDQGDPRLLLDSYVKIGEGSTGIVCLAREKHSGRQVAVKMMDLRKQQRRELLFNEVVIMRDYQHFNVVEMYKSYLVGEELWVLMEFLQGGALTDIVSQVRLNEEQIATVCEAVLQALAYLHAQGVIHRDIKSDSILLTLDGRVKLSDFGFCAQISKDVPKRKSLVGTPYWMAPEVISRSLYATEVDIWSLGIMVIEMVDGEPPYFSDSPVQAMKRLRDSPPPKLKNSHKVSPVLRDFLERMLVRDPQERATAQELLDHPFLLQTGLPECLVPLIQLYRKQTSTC
Sequence of STK33 (Q9BYT3 whole entry): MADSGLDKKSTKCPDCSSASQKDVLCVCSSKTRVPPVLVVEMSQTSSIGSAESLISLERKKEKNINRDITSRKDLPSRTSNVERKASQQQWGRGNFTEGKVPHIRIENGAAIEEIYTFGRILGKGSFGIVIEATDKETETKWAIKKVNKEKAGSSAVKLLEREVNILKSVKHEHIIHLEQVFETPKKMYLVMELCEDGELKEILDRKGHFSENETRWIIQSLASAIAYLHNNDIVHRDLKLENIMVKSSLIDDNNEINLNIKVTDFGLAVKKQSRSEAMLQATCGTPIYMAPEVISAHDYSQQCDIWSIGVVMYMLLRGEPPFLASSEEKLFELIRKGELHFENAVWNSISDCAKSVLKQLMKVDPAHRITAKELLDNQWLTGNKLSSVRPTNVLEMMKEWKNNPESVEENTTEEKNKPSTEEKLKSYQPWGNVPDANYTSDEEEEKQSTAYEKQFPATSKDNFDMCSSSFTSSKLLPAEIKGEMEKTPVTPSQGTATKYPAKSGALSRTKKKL

As to `CC#CC(=O)N1CC[C@@H](n2c(=O)n(-c3ccc(Oc4ccccc4)cc3)c3c(N)ncnc32)C1` [Tirabrutinib], the remaining binding at 0.3 µM on PAK6 (setting [1]) worked out at 98%; at TIE1 (setting [1]), 90%; on PFTAIRE2 (setting [1]), 99%; on NEK2 (setting [1]), 93%.

As for `CC#CC(=O)N1CCC[C@H]1c1nc(-c2ccc(C(=O)Nc3ccccn3)cc2)c2c(N)nccn12` [Acalabrutinib], the remaining binding at 0.3 µM at PAK6 (setting [2]) came to 88%; on STK35 (setting [2]), 96%; at TIE1 (setting [2]) it was 86%; at PFTAIRE2 (setting [2]), 82%; at NEK2 (setting [2]), 95%; on AXL (setting [2]) it was 88%. The remaining binding at 0.3 µM on STK33 (setting [2]) was 90%.

In the case of `C=CC(=O)N1CCC[C@@H](n2nc(-c3ccc(Oc4ccccc4)cc3)c3c(N)ncnc32)C1` [Ibrutinib], the remaining binding at 0.3 µM on STK35 (setting [3]) was 86%; at TIE1 (setting [3]), 75%; at PFTAIRE2 (setting [3]) it was 89%; on NEK2 (setting [3]) it was 84%; at AXL (setting [3]), 85%; on STK33 (setting [3]) it was 86%.

On to `C=CC(=O)N1CCC([C@@H]2CCNc3c(C(N)=O)c(-c4ccc(Oc5ccccc5)cc4)nn32)CC1` [Zanubrutinib], for which the remaining binding at 0.3 µM on PAK6 (setting [4]) turned out to be 91%; on STK35 (setting [4]), 92%; at TIE1 (setting [4]), 98%; at NEK2 (setting [4]), 90%; at AXL (setting [4]), 91%; at STK33 (setting [4]) it was 93%.
